Data published in patent US20250324972A1, “METHOD OF CONTROLLING NEMATODES” (priority 2022, published 2025).

Key:
[1] = tested on: Tomatoes of Aryman variety; assay: Open field trial on tomato: phytotoxicity evaluation; format: in vivo
Experimental: An open field trial was conducted. Tomatoes of Aryman variety was used. The soil type was sandy loam.
Fertilizers were applied prior to bed formation. Plots were formed, with a total area of 25 m^2 per plot. Drip lines were laid in the plot beds (plot beds occupy half the field). Treatments were arranged in a randomized complete block design with two replications.
Fluensulfone emulsifiable concentrate (Nimitz® 480 EC) was used for the fluensulfone treatments. Additionally, comparative nematicides fluopyram (as Fluopyram® 500 SC) and carbofuran (as Carbofuran® 3% CG), were tested. Untreated control plots were formed for comparison.
In Table 1, time of application is expressed by DAT, which indicates the number of days relative to the date of planting.
Treatments 2 and 3 (of the invention): fluensulfone in the form of an emulsifiable concentrate (Nimitz® 480 EC) was applied at the day of planting (DAT=0), followed by a post-plant application twenty five days later (DAT=25). The application method consisted of the following steps. First, the soil was wetted by irrigation water. Then, at the day of planting, appropriate amounts of Nimitz® 480 EC were diluted in water and applied to achieve the application rates tabulated in Table 1. It was repeated on DAT=25. […]
Phytotoxicity was evaluated on DAT=7, 21, 32, and 46. […]

root-knot nematode = assay: Open field trial on tomato: root galling assessed with the root galling index (Bridge and Page chart); format: in vivo
Text: The rating method is based on assigning an integer number in the interval from 0 (no knots on the roots) to 10 (all roots severely knotted indicative of plant death).
Treatments 2 and 3 (of the invention): fluensulfone in the form of an emulsifiable concentrate (Nimitz® 480 EC) was applied at the day of planting (DAT=0), followed by a post-plant application twenty five days later (DAT=25). The application method consisted of the following steps. First, the soil was wetted by irrigation water. Then, at the day of planting, appropriate amounts of Nimitz® 480 EC were diluted in water and applied to achieve the application rates tabulated in Table 1. […]
Root galling was assessed in the open-field trial, on DAT=25, 50, and 75, using the root galling index. […]

SMILES | Phytotoxicity score ([1]; evaluated on DAT=7, 21, 32, and 46, fluopyram 500 SC 0 DAT @ 1250 ml/ha) | average root galling indexes (RGI) (root-knot nematode; application initiated on the day of planting/transplanting, even seventy days after planting/transplanting) | root galling index (root-knot nematode; method of the invention, at least over 50 days and even 75 days after planting) | Phytotoxicity ([1]; entire range of application rates tested, evaluated on DAT=7, 21, 32, and 46)
O=C(NCCc1ncc(C(F)(F)F)cc1Cl)c1ccccc1C(F)(F)F [fluopyram] | 65 | – | – | –
O=S(=O)(CCC(F)=C(F)F)c1ncc(Cl)s1 [fluensulfone, 5-chloro-2-(3,4,4-trifluoro-but-3-ene-1-sulfonyl)-1,3-thiazole] | – | below 3 | below 2 | No phytotoxicity was observed
